Measurements as given in paper PMC4242080, “NMR structure of the water soluble Aβ17–34 peptide” (Bioscience Reports, 2014).

Test: Peptide solubility in aqueous buffers and water
Procedure: These peptides contained two glutamate or arginine residues at the N- and C-termini for increased solubility. The full amino acid sequence of the purchased Aβ was […] (Peptide 2.0 Inc. Company) and […] (Sigma-Aldrich). The peptide mass was verified using MALDI-TOF mass spectroscopy. To dissolve the peptides, phosphate and acetate aqueous buffers were prepared. None of the buffers contained hydrophobic solvents known to solubilize and stabilize α-helices (i.e. TFE or HFPI) or surfactants known to dissolve hydrophobic peptides (i.e. SDS). Henceforth, the Aβ17–34 peptide refers to the peptide flanked by two glutamates.
To solubilize Aβ, several approaches were taken. One approach was to add two arginines at the N- and C-termini. […] Another approach was to add two glutamic acids at the N- and C-termini.

Structure (SMILES): CC[C@H](C)[C@H](NC(=O)[C@H](C)NC(=O)CNC(=O)[C@H](CCCCN)NC(=O)[C@H](CC(N)=O)NC(=O)[C@H](CO)NC(=O)CNC(=O)[C@@H](NC(=O)[C@H](CC(=O)O)NC(=O)[C@H](CCC(=O)O)NC(=O)[C@H](C)NC(=O)[C@H](Cc1ccccc1)NC(=O)[C@H](Cc1ccccc1)NC(=O)[C@@H](NC(=O)[C@H](CC(C)C)NC(=O)[C@H](CCCNC(=N)N)NC(=O)[C@@H](N)CCCNC(=N)N)C(C)C)C(C)C)C(=O)N[C@H](C(=O)NCC(=O)N[C@@H](CC(C)C)C(=O)N[C@@H](CCCNC(=N)N)C(=O)N[C@@H](CCCNC(=N)N)C(=O)O)[C@@H](C)CC
- solubility in acetate and phosphate buffers at pH 1, 7 and 10 (acetate and phosphate aqueous buffers, pH 1, 7 and 10, no TFE, HFPI or SDS, compared with peptide without flanking residues): did not improve solubility

Structure (SMILES): CC[C@H](C)[C@H](NC(=O)[C@H](C)NC(=O)CNC(=O)[C@H](CCCCN)NC(=O)[C@H](CC(N)=O)NC(=O)[C@H](CO)NC(=O)CNC(=O)[C@@H](NC(=O)[C@H](CC(=O)O)NC(=O)[C@H](CCC(=O)O)NC(=O)[C@H](C)NC(=O)[C@H](Cc1ccccc1)NC(=O)[C@H](Cc1ccccc1)NC(=O)[C@@H](NC(=O)[C@H](CC(C)C)NC(=O)[C@H](CCC(=O)O)NC(=O)[C@@H](N)CCC(=O)O)C(C)C)C(C)C)C(=O)N[C@H](C(=O)NCC(=O)N[C@@H](CC(C)C)C(=O)N[C@@H](CCC(=O)O)C(=O)N[C@@H](CCC(=O)O)C(=O)O)[C@@H](C)CC [Aβ17–34 peptide]
- effect of terminal residue addition on solubility: improved solubility drastically
- solubility in water: not in water
- solubility in 50 mM acetate buffer at pH 7 (pH 7): soluble
- solubility in 50 mM phosphate buffer at pH 7 (pH 7): soluble
